Test results published in ChEMBL document CHEMBL1909046, “DrugMatrix in vitro pharmacology data”.

Tests used:
Melanocortin receptor 3 = Melanocortin receptor 3 (Homo sapiens, UniProt P41968); format: cell membranes, HEK293, Membrane; conditions: hek293; note: in other assays of this panel Not Active means under 50% inhibition at 10 µM
[1] = biological target: Delta-type opioid receptor (Homo sapiens, UniProt P41143); format: cell membranes, HEK293, Membrane; conditions: hek293; note: in other assays of this panel Not Active means under 50% inhibition at 10 µM
Cytochrome P450 2C19 = Cytochrome P450 2C19 (Homo sapiens, UniProt P33261); conditions: bti-tn-5b1-4; note: in other assays of this panel Not Active means under 50% inhibition at 10 µM
Interstitial collagenase = biological target: T1, Interstitial collagenase (Homo sapiens, UniProt P03956); assay: biochemical; format: tissue-based, Rheumatoid synovial fibroblasts;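 note: MMP-1 enzyme inhibition assay using a peptide substrate; in other assays of this panel Not Active means under 50% inhibition at 10 µM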
T1 sequence (P03956 whole entry): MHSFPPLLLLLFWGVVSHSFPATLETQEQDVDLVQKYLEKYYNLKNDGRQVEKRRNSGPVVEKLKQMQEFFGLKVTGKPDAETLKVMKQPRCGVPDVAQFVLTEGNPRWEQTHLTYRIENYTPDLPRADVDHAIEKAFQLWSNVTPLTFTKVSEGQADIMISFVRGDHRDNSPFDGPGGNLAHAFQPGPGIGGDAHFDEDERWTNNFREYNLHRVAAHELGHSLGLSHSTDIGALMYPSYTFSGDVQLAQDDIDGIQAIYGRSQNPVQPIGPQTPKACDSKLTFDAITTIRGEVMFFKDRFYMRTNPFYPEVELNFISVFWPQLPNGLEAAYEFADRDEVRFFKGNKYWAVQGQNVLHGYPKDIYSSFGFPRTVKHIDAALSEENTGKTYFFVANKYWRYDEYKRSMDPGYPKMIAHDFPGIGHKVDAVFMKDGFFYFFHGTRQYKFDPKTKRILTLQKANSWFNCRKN

[2] = biological target: Beta-2 adrenergic receptor (Homo sapiens, UniProt P07550); assay: DRUGMATRIX: Adrenergic beta2 radioligand binding (ligand: [3H] CGP-12177); format: cell membranes, CHO, Membrane; conditions: cho; Not Active = under 50% inhibition at 10 µM
[3] = DRUGMATRIX: Sigma2 radioligand binding (ligand: [3H] Ifenprodil); format: cell membranes, Rattus norvegicus, Wistar, Brain, Membrane; conditions: Not Active = under 50% inhibition at 10 µM
[4] = biological target: T2, Nitric oxide synthase, inducible (Mus musculus, UniProt P29477); parameters: species or system Escherichia coli
T2 sequence (P29477 whole entry): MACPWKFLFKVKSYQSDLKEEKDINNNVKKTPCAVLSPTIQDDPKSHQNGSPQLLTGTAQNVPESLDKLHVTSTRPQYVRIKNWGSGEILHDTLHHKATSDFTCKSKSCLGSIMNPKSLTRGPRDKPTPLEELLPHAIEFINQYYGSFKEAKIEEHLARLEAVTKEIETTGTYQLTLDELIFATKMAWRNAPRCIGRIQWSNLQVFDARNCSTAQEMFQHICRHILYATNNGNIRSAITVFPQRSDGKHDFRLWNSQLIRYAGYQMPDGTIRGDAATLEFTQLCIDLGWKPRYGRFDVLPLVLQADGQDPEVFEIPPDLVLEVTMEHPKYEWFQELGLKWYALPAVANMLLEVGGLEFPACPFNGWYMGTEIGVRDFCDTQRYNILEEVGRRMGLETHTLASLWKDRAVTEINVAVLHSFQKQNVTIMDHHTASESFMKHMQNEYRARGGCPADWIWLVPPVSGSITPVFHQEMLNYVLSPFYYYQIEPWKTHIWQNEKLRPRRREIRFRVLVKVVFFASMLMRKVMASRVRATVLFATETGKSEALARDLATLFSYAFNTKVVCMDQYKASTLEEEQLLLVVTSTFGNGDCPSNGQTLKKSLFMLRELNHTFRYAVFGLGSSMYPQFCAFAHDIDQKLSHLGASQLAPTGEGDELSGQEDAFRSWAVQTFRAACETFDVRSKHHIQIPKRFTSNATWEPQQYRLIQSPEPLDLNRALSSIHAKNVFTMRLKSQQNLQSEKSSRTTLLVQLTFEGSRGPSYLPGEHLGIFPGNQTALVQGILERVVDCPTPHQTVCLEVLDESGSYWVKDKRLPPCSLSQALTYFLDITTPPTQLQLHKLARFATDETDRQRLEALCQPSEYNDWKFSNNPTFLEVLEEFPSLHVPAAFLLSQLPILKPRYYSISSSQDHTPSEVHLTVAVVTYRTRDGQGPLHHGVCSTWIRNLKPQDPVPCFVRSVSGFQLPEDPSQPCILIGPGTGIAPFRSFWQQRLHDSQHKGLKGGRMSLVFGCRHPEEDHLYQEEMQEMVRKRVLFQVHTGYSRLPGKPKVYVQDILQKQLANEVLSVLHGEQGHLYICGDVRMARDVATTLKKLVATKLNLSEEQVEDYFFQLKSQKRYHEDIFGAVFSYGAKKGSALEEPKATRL

Sequence of Melanocortin receptor 3 (P41968 whole entry): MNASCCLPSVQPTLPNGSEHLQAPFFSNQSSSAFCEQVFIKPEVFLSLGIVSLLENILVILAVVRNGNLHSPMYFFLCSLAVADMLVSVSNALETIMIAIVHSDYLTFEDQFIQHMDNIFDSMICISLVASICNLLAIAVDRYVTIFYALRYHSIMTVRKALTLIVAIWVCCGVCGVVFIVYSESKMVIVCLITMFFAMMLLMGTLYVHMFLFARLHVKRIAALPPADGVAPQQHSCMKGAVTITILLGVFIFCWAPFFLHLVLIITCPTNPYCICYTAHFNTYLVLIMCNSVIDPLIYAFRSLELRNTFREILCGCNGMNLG
Sequence of Delta-type opioid receptor (P41143 whole entry): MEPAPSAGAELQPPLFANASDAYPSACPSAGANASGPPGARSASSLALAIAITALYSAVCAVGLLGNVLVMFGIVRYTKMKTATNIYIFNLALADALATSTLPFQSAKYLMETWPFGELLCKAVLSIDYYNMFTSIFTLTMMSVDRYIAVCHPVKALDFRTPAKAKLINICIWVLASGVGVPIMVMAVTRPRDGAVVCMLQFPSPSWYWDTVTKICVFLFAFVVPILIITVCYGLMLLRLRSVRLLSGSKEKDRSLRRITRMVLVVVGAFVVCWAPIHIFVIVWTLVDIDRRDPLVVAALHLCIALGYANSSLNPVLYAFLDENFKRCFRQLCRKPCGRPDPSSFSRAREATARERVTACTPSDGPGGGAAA
Sequence of Cytochrome P450 2C19 (P33261 whole entry): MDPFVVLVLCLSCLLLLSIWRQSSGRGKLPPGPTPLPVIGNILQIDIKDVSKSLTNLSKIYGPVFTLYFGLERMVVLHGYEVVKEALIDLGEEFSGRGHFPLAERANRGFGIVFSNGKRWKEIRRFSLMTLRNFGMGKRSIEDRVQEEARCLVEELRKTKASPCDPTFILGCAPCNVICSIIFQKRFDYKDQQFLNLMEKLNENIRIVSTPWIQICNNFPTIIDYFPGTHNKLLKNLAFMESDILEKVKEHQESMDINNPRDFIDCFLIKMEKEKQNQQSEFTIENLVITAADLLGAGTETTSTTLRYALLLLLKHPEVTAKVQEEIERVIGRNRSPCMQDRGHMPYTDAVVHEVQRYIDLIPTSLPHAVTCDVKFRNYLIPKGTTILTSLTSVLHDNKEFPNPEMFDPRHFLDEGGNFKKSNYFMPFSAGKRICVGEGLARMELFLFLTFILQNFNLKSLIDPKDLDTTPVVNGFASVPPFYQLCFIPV

O=C(NCCN1CCOCC1)c1ccc(Cl)cc1 [MOCLOBEMIDE]
Not Active: IC50 (Melanocortin receptor 3) | IC50 [1] | IC50 (Cytochrome P450 2C19) | Ki (Cytochrome P450 2C19) | IC50 (Interstitial collagenase) | IC50 [2] | IC50 [3] | Ki [3] | IC50 [4]

O=C(O)COC(=O)Cc1ccccc1Nc1c(Cl)cccc1Cl [ACECLOFENAC]
Not Active: IC50 (Melanocortin receptor 3) | IC50 [1] | IC50 (Cytochrome P450 2C19) | Ki (Cytochrome P450 2C19) | IC50 (Interstitial collagenase) | IC50 [2] | IC50 [3] | Ki [3] | IC50 [4]

COc1cc(/C=C/C(=O)O)ccc1O [FERULATE]
Not Active: IC50 (Melanocortin receptor 3) | IC50 [1] | IC50 (Cytochrome P450 2C19) | Ki (Cytochrome P450 2C19) | IC50 (Interstitial collagenase) | IC50 [2] | IC50 [3] | Ki [3] | IC50 [4]

O=c1[nH]c2ccccc2c2ccccc12
Not Active: IC50 (Melanocortin receptor 3) | IC50 [1] | IC50 (Cytochrome P450 2C19) | Ki (Cytochrome P450 2C19) | IC50 (Interstitial collagenase) | IC50 [2] | IC50 [3] | Ki [3] | IC50 [4]

COc1ccc(C[C@H](N)C(=O)N[C@H]2[C@@H](O)[C@H](n3cnc4c(N(C)C)ncnc43)O[C@@H]2CO)cc1 [PUROMYCIN]
Not Active: IC50 (Melanocortin receptor 3) | IC50 [1] | IC50 (Cytochrome P450 2C19) | Ki (Cytochrome P450 2C19) | IC50 (Interstitial collagenase) | IC50 [2] | IC50 [3] | Ki [3] | IC50 [4]

NC(=O)NC(=O)Cc1ccccc1 [PHENACEMIDE]
Not Active: IC50 (Melanocortin receptor 3) | IC50 [1] | IC50 (Cytochrome P450 2C19) | Ki (Cytochrome P450 2C19) | IC50 (Interstitial collagenase) | IC50 [2] | IC50 [3] | Ki [3] | IC50 [4]

CC(N)Cc1c[nH]c2ccc(OCc3cccs3)cc12 (centres undefined) [BW-723C86]
Not Active: IC50 (Melanocortin receptor 3) | IC50 [1] | IC50 (Cytochrome P450 2C19) | Ki (Cytochrome P450 2C19) | IC50 (Interstitial collagenase) | IC50 [2] | IC50 [3] | Ki [3] | IC50 [4]

c1ccc2c(c1)Nc1ccccc1S2 [PHENOTHIAZINE]
Not Active: IC50 (Melanocortin receptor 3) | IC50 [1] | IC50 (Cytochrome P450 2C19) | Ki (Cytochrome P450 2C19) | IC50 (Interstitial collagenase) | IC50 [2] | IC50 [3] | Ki [3] | IC50 [4]

POVIDONE
Not Active: IC50 (Melanocortin receptor 3) | Ki (Melanocortin receptor 3) | IC50 [1] | Ki [1] | IC50 (Cytochrome P450 2C19) | Ki (Cytochrome P450 2C19) | IC50 (Interstitial collagenase) | Ki (Interstitial collagenase) | IC50 [2] | Ki [2] | IC50 [3] | Ki [3] | IC50 [4] | Ki [4]

CCO [ALCOHOL]
Not Active: IC50 (Melanocortin receptor 3) | IC50 [1] | IC50 (Cytochrome P450 2C19) | Ki (Cytochrome P450 2C19) | IC50 (Interstitial collagenase) | IC50 [2] | IC50 [3] | Ki [3] | IC50 [4]

Clc1cc(Cl)c(OCC#CI)cc1Cl [HALOPROGIN]
Not Active: IC50 (Melanocortin receptor 3) | IC50 [1] | IC50 (Cytochrome P450 2C19) | Ki (Cytochrome P450 2C19) | IC50 (Interstitial collagenase) | IC50 [2] | IC50 [3] | Ki [3] | IC50 [4]

CHROMIC CHLORIDE
Not Active: IC50 (Melanocortin receptor 3) | Ki (Melanocortin receptor 3) | IC50 [1] | Ki [1] | IC50 (Cytochrome P450 2C19) | Ki (Cytochrome P450 2C19) | IC50 (Interstitial collagenase) | Ki (Interstitial collagenase) | IC50 [2] | Ki [2] | IC50 [3] | Ki [3] | IC50 [4] | Ki [4]

Nc1ccc(Cc2ccc(N)cc2)cc1
Not Active: IC50 (Melanocortin receptor 3) | IC50 [1] | IC50 (Cytochrome P450 2C19) | Ki (Cytochrome P450 2C19) | IC50 (Interstitial collagenase) | IC50 [2] | IC50 [3] | Ki [3] | IC50 [4]

OC[C@H]1OC2C3[C@@H](CO)OC(O[C@H]4[C@H](O)[C@@H](O)[C@@H](O[C@H]5[C@H](O)[C@@H](O)[C@@H](O[C@H]6[C@H](O)[C@@H](O)[C@@H](O[C@H]7[C@H](O)[C@@H](O)[C@@H](O[C@H]8[C@H](O)[C@@H](O)[C@@H](O[C@H]9[C@H](O)[C@@H](O)C(OC1[C@H](O)[C@H]2O)O[C@@H]9CO)O[C@@H]8CO)O[C@@H]7CO)O[C@@H]6CO)O[C@@H]5CO)O[C@@H]4CO)[C@H](O)[C@H]3O
Not Active: IC50 (Melanocortin receptor 3) | IC50 [1] | IC50 (Cytochrome P450 2C19) | Ki (Cytochrome P450 2C19) | IC50 (Interstitial collagenase) | IC50 [2] | IC50 [3] | Ki [3] | IC50 [4]

Nc1ccc(C(=O)O)c(O)c1 [AMINOSALICYLIC ACID]
Not Active: IC50 (Melanocortin receptor 3) | IC50 [1] | IC50 (Cytochrome P450 2C19) | Ki (Cytochrome P450 2C19) | IC50 (Interstitial collagenase) | IC50 [2] | IC50 [3] | Ki [3] | IC50 [4]

O=c1[nH]cnc2c1ncn2[C@H]1CC[C@@H](CO)O1 [DIDANOSINE]
Not Active: IC50 (Melanocortin receptor 3) | IC50 [1] | IC50 (Cytochrome P450 2C19) | Ki (Cytochrome P450 2C19) | IC50 (Interstitial collagenase) | IC50 [2] | IC50 [3] | Ki [3] | IC50 [4]
